From ChEMBL document CHEMBL4011659, “Combining Elements from Two Antagonists of Formyl Peptide Receptor 2 Generates More Potent Peptidomimetic Antagonists” (J Med Chem, 2017)
The source made the active and inactive calls. The rule behind the calls is not given here.

Key:
[1] = molecular target: T1, N-formyl peptide receptor 2 (Homo sapiens) (UniProt P25090); assay: (§1) Antagonist activity at FPR2 in human peripheral blood polymorphonuclear neutrophils assessed as inhibition of WKYMVM-peptide induced ROS production preincubated for 5 mins followed WKYMVM-peptide stimulation by isoluminol/HRP-based chemiluminescence assay
T1 sequence (whole entry): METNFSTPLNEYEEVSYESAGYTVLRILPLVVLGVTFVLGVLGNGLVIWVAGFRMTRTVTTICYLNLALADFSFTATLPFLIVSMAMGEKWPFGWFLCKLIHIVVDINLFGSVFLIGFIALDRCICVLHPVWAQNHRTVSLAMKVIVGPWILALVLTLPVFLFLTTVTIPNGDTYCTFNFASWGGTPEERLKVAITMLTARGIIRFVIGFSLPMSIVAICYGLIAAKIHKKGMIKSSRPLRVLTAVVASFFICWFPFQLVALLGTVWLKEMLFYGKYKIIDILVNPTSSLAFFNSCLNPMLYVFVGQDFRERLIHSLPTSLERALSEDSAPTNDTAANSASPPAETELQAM

[2] = molecular target: T1, N-formyl peptide receptor 2 (Homo sapiens); settings: 100 nM
Description: Antagonist activity at FPR2 in human peripheral blood polymorphonuclear neutrophils assessed as inhibition of WKYMVM-induced ROS production at 100 nM preincubated for 5 mins followed Lau-Aoc-(Lys-betaNphe)6-NH2 stimulation by isoluminol/HRP-based chemiluminescence assay

[3] = molecular target: T2, fMet-Leu-Phe receptor (Homo sapiens) (UniProt P21462); assay: (§2) Antagonist activity at FPR1 in human peripheral blood polymorphonuclear neutrophils assessed as inhibition of fMLF-induced ROS production at 500 nM preincubated for 5 mins followed fMIFL stimulation by isoluminol/HRP-based chemiluminescence assay
T2 sequence (whole entry): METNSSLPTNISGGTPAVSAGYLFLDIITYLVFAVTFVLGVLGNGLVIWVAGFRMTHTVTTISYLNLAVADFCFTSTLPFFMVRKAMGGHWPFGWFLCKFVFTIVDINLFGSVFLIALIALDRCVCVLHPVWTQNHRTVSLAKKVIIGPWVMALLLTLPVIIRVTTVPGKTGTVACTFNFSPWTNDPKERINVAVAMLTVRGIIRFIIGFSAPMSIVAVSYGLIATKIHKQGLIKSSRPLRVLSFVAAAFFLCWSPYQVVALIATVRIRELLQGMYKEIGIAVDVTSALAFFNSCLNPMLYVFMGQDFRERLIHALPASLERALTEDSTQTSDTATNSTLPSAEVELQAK

[4] = molecular target: T1, N-formyl peptide receptor 2 (Homo sapiens); settings: 100 nM; remark: listed apart in the source
Description: Displacement of Cy5-WKYMVM from FPR2 in human peripheral blood polymorphonuclear neutrophils at 100 nM preincubated for 10 mins followed by Cy5-WKYMVM addition measured after 60 mins by fluorescence based assay

[5] = molecular target: T1, N-formyl peptide receptor 2 (Homo sapiens); settings: 100 nM; remark: listed apart in the source
Description: Antagonist activity at FPR2 in human peripheral blood polymorphonuclear neutrophils assessed as inhibition of Lau-Aoc-(Lys-betaNphe)6-NH2-induced ROS production at 100 nM preincubated for 5 mins followed Lau-Aoc-(Lys-betaNphe)6-NH2 stimulation by isoluminol/HRP-based chemiluminescence assay

[6] = molecular target: T2, fMet-Leu-Phe receptor (Homo sapiens); assay: Antagonist activity at FPR1 in human peripheral blood polymorphonuclear neutrophils assessed as inhibition of fMIFL-induced ROS production at 500 nM preincubated for 5 mins followed fMIFL stimulation by isoluminol/HRP-based chemiluminescence assay
[7] = molecular target: T1, N-formyl peptide receptor 2 (Homo sapiens); settings: 100 nM; remark: listed apart in the source
Description: Antagonist activity at FPR2 in human peripheral blood polymorphonuclear neutrophils assessed as inhibition of PSMalpha2-peptide induced ROS production at 100 nM preincubated for 5 mins followed PSMalpha2-peptide stimulation by isoluminol/HRP-based chemiluminescence assay

[8] = molecular target: T3, N-formyl peptide receptor 2 (Homo sapiens, UniProt P25090); assay: as §1
T3 sequence (P25090 whole entry): T1 sequence (whole entry)

[9] = molecular target: T2, fMet-Leu-Phe receptor (Homo sapiens); assay: Antagonist activity at FPR1 in human peripheral blood polymorphonuclear neutrophils assessed as inhibition of fMLF-induced ROS production at <500 nM preincubated for 5 mins followed fMLF stimulation by isoluminol/HRP-based chemiluminescence assay
[10] = molecular target: T1, N-formyl peptide receptor 2 (Homo sapiens); settings: 100 nM; remark: listed apart in the source
Description: Antagonist activity at FPR2 in human peripheral blood polymorphonuclear neutrophils assessed as inhibition of F2Pal10-induced ROS production at 100 nM preincubated for 5 mins followed F2Pal10 stimulation by isoluminol/HRP-based chemiluminescence assay

[11] = molecular target: T2, fMet-Leu-Phe receptor (Homo sapiens); assay: as §2, with “N-(4-chlorophenyl)-N'-(5-isopropyl-1-methyl-3-oxo-2-phenyl-2,3-dihydro-1H-pyrazol-4-yl)urea-induced” for “fMLF-induced”, “N-(4-chlorophenyl)-N'-(5-isopropyl-1-methyl-3-oxo-2-phenyl-2,3-dihydro-1H-pyrazol-4-yl)urea” for “fMIFL”
Neutrophil = assay: Inhibition of PMA-induced superoxide production in human peripheral blood polymorphonuclear neutrophils at 500 nM preincubated for 5 mins followed PMA stimulation by isoluminol/HRP-based chemiluminescence assay; assay type: functional, cell-based
[12] = molecular target: T2, fMet-Leu-Phe receptor (Homo sapiens); assay: Antagonist activity at FPR1 in human peripheral blood polymorphonuclear neutrophils assessed as inhibition of fMLF-induced ROS production at >= 500 nM preincubated for 5 mins followed fMLF stimulation by isoluminol/HRP-based chemiluminescence assay

inhibition [1]	inhibition [2]	inhibition [3]	inhibition [4]	inhibition [5]	inhibition [6]	inhibition [7]	IC50 [8] [nM]	inhibition [9]	inhibition [10]	inhibition [11]	inhibition [12]	Structure (SMILES)	inhibition (Neutrophil)
Active	–	–	–	–	–	–	–	–	–	–	–	CCN(CC)c1ccc2c(-c3ccccc3C(=O)N[C@@H](CCC(N)=O)C(=O)N[C@@H](CCCNC(=N)N)C(=O)N[C@@H](CC(C)C)C(=O)N[C@@H](Cc3ccccc3)C(=O)N[C@@H](CCC(N)=O)C(=O)N[C@@H](C(=O)N[C@@H](CCCCN)C(=O)NCC(=O)N[C@@H](CCCNC(=N)N)C(=O)N[C@@H](CCCNC(=N)N)C(N)=O)C(C)C)c3ccc(=[N+](CC)CC)cc-3oc2c1	–
–	Active	inactive	Active	Active	inactive	Active	15	inactive	Active	inactive	–	CCN(CC)c1ccc2c(-c3ccccc3C(=O)N[C@@H](CCCCN)C(=O)N(CCC(=O)N[C@@H](CCCCN)C(=O)N(CCC(=O)N[C@@H](CCCCN)C(=O)N(CCC(=O)N[C@@H](CCCCN)C(=O)N(CCC(=O)N[C@@H](CCCCN)C(=O)N(CCC(=O)N[C@@H](CCCCN)C(=O)N(CCC(N)=O)Cc3ccccc3)Cc3ccccc3)Cc3ccccc3)Cc3ccccc3)Cc3ccccc3)Cc3ccccc3)c3ccc(=[N+](CC)CC)cc-3oc2c1	–
–	–	–	–	–	–	–	94	–	–	–	Active	CCN(CC)c1ccc2c(-c3ccccc3C(=O)N[C@@H](CCCCN)C(=O)N(CCC(=O)N[C@@H](CCCCN)C(=O)N(CCC(=O)N[C@@H](CCCCN)C(=O)N(CCC(=O)N[C@@H](CCCCN)C(=O)N(CCC(=O)N[C@@H](CCCCN)C(=O)N(CCC(=O)N[C@@H](CCCCN)C(=O)N(CCC(N)=O)Cc3ccc(C(F)(F)F)cc3)Cc3ccc(C(F)(F)F)cc3)Cc3ccc(C(F)(F)F)cc3)Cc3ccc(C(F)(F)F)cc3)Cc3ccc(C(F)(F)F)cc3)Cc3ccc(C(F)(F)F)cc3)c3ccc(=[N+](CC)CC)cc-3oc2c1	Active
